Assay results from patent US7820623B2 (priority 2006, dated 2010).
Bridge positions count the residues as written; N and C are the ends. Square brackets hold non-standard residues; d marks the D form. Peptide text beside a SMILES is read from it. 1Nal = N[C@@H](Cc1cccc2ccccc12)C(=O)O

Assays:
[1] = system: thapsigargin-induced IFN-g production in human whole blood; format: cell-based; settings: read-out: Analogue Activity (IC50) WB/IFNg
[2] = system: thapsigargin-induced IL-2 production in human whole blood; settings: read-out: Analogue Activity (IC50) WB/IL-2

Compound | IC50 [1] [nM] | IC50 [2] [nM]
CC[C@H](C)[C@H](NC(=O)[C@@H](NC(=O)CN)C(C)C)C(=O)N[C@H](C(=O)N[C@@H](CC(N)=O)C(=O)N[C@H](C(=O)N[C@@H](CCCCN)C(=O)N[C@H]1CSSC[C@@H]2NC(=O)[C@H](CCCCN)NC(=O)CNC(=O)[C@H](Cc3ccccc3)NC(=O)[C@H](CCCNC(=N)N)NC(=O)[C@H](CCSC)NC(=O)CNC(=O)[C@H](C)NC(=O)[C@H](CCCCN)NC(=O)[C@H](CCCCN)NC(=O)[C@@H]3CSSC[C@@H](C(=O)N[C@H](C(=O)N4CCC[C@H]4C(=O)N[C@@H](CCCCN)C(=O)O)[C@@H](C)O)NC(=O)[C@H](Cc4c[nH]cn4)NC(=O)[C@H](CSSC[C@H](NC(=O)[C@H](CCC(N)=O)NC(=O)[C@H](CCCNC(=N)N)NC(=O)[C@H](CO)NC(=O)[C@H](CCCNC(=N)N)NC(=O)[C@H](CCCCN)NC1=O)C(=O)N[C@@H](CC(C)C)C(=O)N[C@@H](CCC(=O)O)C(=O)N1CCC[C@H]1C(=O)N3)NC(=O)[C@H](CCCCN)NC(=O)CNC(=O)[C@H](CC(N)=O)NC(=O)[C@H](CCSC)NC2=O)C(C)C)[C@@H](C)CC [I10R] (H-GVIINVKCKRSRQCLEPCKKAGMRFGKCMNGKCHCTPK-OH; disulfide 8-28, 14-33, 18-35) | 0.474 | 0.307
CC[C@H](C)[C@@H]1NC(=O)[C@H](CCCCN)NC(=O)[C@@H](NC(=O)[C@H](C)NC(=O)[C@@H](NC(=O)[C@H](CC(N)=O)NC(=O)[C@@H](NC(=O)[C@@H](NC(=O)[C@@H](NC(=O)CN)C(C)C)[C@@H](C)CC)[C@@H](C)CC)C(C)C)CSSC[C@@H]2NC(=O)[C@H](CCCCN)NC(=O)CNC(=O)[C@H](Cc3ccccc3)NC(=O)[C@H](CCCNC(=N)N)NC(=O)[C@H](CCSC)NC(=O)CNC(=O)[C@H](C)NC(=O)[C@H](CCCCN)NC(=O)[C@H](CCCCN)NC(=O)[C@@H]3CSSC[C@@H](C(=O)N[C@H](C(=O)N4CCC[C@H]4C(=O)N[C@@H](CCCCN)C(=O)O)[C@@H](C)O)NC(=O)[C@H](Cc4c[nH]cn4)NC(=O)[C@H](CSSC[C@H](NC(=O)[C@H](CCC(N)=O)NC(=O)[C@H](CCCNC(=N)N)NC(=O)[C@H](CO)NC1=O)C(=O)N[C@@H](CC(C)C)C(=O)N[C@@H](CCC(=O)O)C(=O)N1CCC[C@H]1C(=O)N3)NC(=O)[C@H](CCCCN)NC(=O)CNC(=O)[C@H](CC(N)=O)NC(=O)[C@H](CCSC)NC2=O [K7A] (H-GVIINVACKISRQCLEPCKKAGMRFGKCMNGKCHCTPK-OH; disulfide 8-28, 14-33, 18-35) | 0.0591 | 0.0675
CC[C@H](C)[C@@H]1NC(=O)[C@H](CCCCN)NC(=O)[C@@H](NC(=O)[C@H](CCC(=O)O)NC(=O)[C@@H](NC(=O)[C@H](CC(N)=O)NC(=O)[C@@H](NC(=O)[C@@H](NC(=O)[C@@H](NC(=O)CN)C(C)C)[C@@H](C)CC)[C@@H](C)CC)C(C)C)CSSC[C@@H]2NC(=O)[C@H](CCCCN)NC(=O)CNC(=O)[C@H](Cc3ccccc3)NC(=O)[C@H](CCCNC(=N)N)NC(=O)[C@H](CCSC)NC(=O)CNC(=O)[C@H](C)NC(=O)[C@H](CCCCN)NC(=O)[C@H](CCCCN)NC(=O)[C@@H]3CSSC[C@@H](C(=O)N[C@H](C(=O)N4CCC[C@H]4C(=O)N[C@@H](CCCCN)C(=O)O)[C@@H](C)O)NC(=O)[C@H](Cc4c[nH]cn4)NC(=O)[C@H](CSSC[C@H](NC(=O)[C@H](CCC(N)=O)NC(=O)[C@H](CCCNC(=N)N)NC(=O)[C@H](CO)NC1=O)C(=O)N[C@@H](CC(C)C)C(=O)N[C@@H](CCC(=O)O)C(=O)N1CCC[C@H]1C(=O)N3)NC(=O)[C@H](CCCCN)NC(=O)CNC(=O)[C@H](CC(N)=O)NC(=O)[C@H](CCSC)NC2=O [K7E] (H-GVIINVECKISRQCLEPCKKAGMRFGKCMNGKCHCTPK-OH; disulfide 8-28, 14-33, 18-35) | 0.068 | 0.058
CC[C@H](C)[C@@H]1NC(=O)[C@H](CCCCN)NC(=O)[C@@H](NC(=O)[C@H](Cc2cccc3ccccc23)NC(=O)[C@@H](NC(=O)[C@H](CC(N)=O)NC(=O)[C@@H](NC(=O)[C@@H](NC(=O)[C@@H](NC(=O)CN)C(C)C)[C@@H](C)CC)[C@@H](C)CC)C(C)C)CSSC[C@@H]2NC(=O)[C@H](CCCCN)NC(=O)CNC(=O)[C@H](Cc3ccccc3)NC(=O)[C@H](CCCNC(=N)N)NC(=O)[C@H](CCSC)NC(=O)CNC(=O)[C@H](C)NC(=O)[C@H](CCCCN)NC(=O)[C@H](CCCCN)NC(=O)[C@@H]3CSSC[C@@H](C(=O)N[C@H](C(=O)N4CCC[C@H]4C(=O)N[C@@H](CCCCN)C(=O)O)[C@@H](C)O)NC(=O)[C@H](Cc4c[nH]cn4)NC(=O)[C@H](CSSC[C@H](NC(=O)[C@H](CCC(N)=O)NC(=O)[C@H](CCCNC(=N)N)NC(=O)[C@H](CO)NC1=O)C(=O)N[C@@H](CC(C)C)C(=O)N[C@@H](CCC(=O)O)C(=O)N1CCC[C@H]1C(=O)N3)NC(=O)[C@H](CCCCN)NC(=O)CNC(=O)[C@H](CC(N)=O)NC(=O)[C@H](CCSC)NC2=O [K7Nal] (H-GVIINV[1Nal]CKISRQCLEPCKKAGMRFGKCMNGKCHCTPK-OH; disulfide 8-28, 14-33, 18-35) | 0.246 | 0.222
CC[C@H](C)[C@@H]1NC(=O)[C@H](CCCCN)NC(=O)[C@@H](NC(=O)[C@H](CCCNC(=N)N)NC(=O)[C@@H](NC(=O)[C@H](CC(N)=O)NC(=O)[C@@H](NC(=O)[C@@H](NC(=O)[C@@H](NC(=O)CN)C(C)C)[C@@H](C)CC)[C@@H](C)CC)C(C)C)CSSC[C@@H]2NC(=O)[C@H](CCCCN)NC(=O)CNC(=O)[C@H](Cc3ccccc3)NC(=O)[C@H](CCCNC(=N)N)NC(=O)[C@H](CCSC)NC(=O)CNC(=O)[C@H](C)NC(=O)[C@H](CCCCN)NC(=O)[C@H](CCCCN)NC(=O)[C@@H]3CSSC[C@@H](C(=O)N[C@H](C(=O)N4CCC[C@H]4C(=O)N[C@@H](CCCCN)C(=O)O)[C@@H](C)O)NC(=O)[C@H](Cc4c[nH]cn4)NC(=O)[C@H](CSSC[C@H](NC(=O)[C@H](CCC(N)=O)NC(=O)[C@H](CCCNC(=N)N)NC(=O)[C@H](CO)NC1=O)C(=O)N[C@@H](CC(C)C)C(=O)N[C@@H](CCC(=O)O)C(=O)N1CCC[C@H]1C(=O)N3)NC(=O)[C@H](CCCCN)NC(=O)CNC(=O)[C@H](CC(N)=O)NC(=O)[C@H](CCSC)NC2=O [K7R] (H-GVIINVRCKISRQCLEPCKKAGMRFGKCMNGKCHCTPK-OH; disulfide 8-28, 14-33, 18-35) | 0.071 | 0.078
CC[C@H](C)[C@@H]1NC(=O)[C@H](C)NC(=O)[C@@H](NC(=O)[C@H](CCCCN)NC(=O)[C@@H](NC(=O)[C@H](CC(N)=O)NC(=O)[C@@H](NC(=O)[C@@H](NC(=O)[C@@H](NC(=O)CN)C(C)C)[C@@H](C)CC)[C@@H](C)CC)C(C)C)CSSC[C@@H]2NC(=O)[C@H](CCCCN)NC(=O)CNC(=O)[C@H](Cc3ccccc3)NC(=O)[C@H](CCCNC(=N)N)NC(=O)[C@H](CCSC)NC(=O)CNC(=O)[C@H](C)NC(=O)[C@H](CCCCN)NC(=O)[C@H](CCCCN)NC(=O)[C@@H]3CSSC[C@@H](C(=O)N[C@H](C(=O)N4CCC[C@H]4C(=O)N[C@@H](CCCCN)C(=O)O)[C@@H](C)O)NC(=O)[C@H](Cc4c[nH]cn4)NC(=O)[C@H](CSSC[C@H](NC(=O)[C@H](CCC(N)=O)NC(=O)[C@H](CCCNC(=N)N)NC(=O)[C@H](CO)NC1=O)C(=O)N[C@@H](CC(C)C)C(=O)N[C@@H](CCC(=O)O)C(=O)N1CCC[C@H]1C(=O)N3)NC(=O)[C@H](CCCCN)NC(=O)CNC(=O)[C@H](CC(N)=O)NC(=O)[C@H](CCSC)NC2=O [K9A] (H-GVIINVKCAISRQCLEPCKKAGMRFGKCMNGKCHCTPK-OH; disulfide 8-28, 14-33, 18-35) | 0.0711 | 0.0796
CC[C@H](C)[C@@H]1NC(=O)[C@H](CCC(=O)O)NC(=O)[C@@H](NC(=O)[C@H](CCCCN)NC(=O)[C@@H](NC(=O)[C@H](CC(N)=O)NC(=O)[C@@H](NC(=O)[C@@H](NC(=O)[C@@H](NC(=O)CN)C(C)C)[C@@H](C)CC)[C@@H](C)CC)C(C)C)CSSC[C@@H]2NC(=O)[C@H](CCCCN)NC(=O)CNC(=O)[C@H](Cc3ccccc3)NC(=O)[C@H](CCCNC(=N)N)NC(=O)[C@H](CCSC)NC(=O)CNC(=O)[C@H](C)NC(=O)[C@H](CCCCN)NC(=O)[C@H](CCCCN)NC(=O)[C@@H]3CSSC[C@@H](C(=O)N[C@H](C(=O)N4CCC[C@H]4C(=O)N[C@@H](CCCCN)C(=O)O)[C@@H](C)O)NC(=O)[C@H](Cc4c[nH]cn4)NC(=O)[C@H](CSSC[C@H](NC(=O)[C@H](CCC(N)=O)NC(=O)[C@H](CCCNC(=N)N)NC(=O)[C@H](CO)NC1=O)C(=O)N[C@@H](CC(C)C)C(=O)N[C@@H](CCC(=O)O)C(=O)N1CCC[C@H]1C(=O)N3)NC(=O)[C@H](CCCCN)NC(=O)CNC(=O)[C@H](CC(N)=O)NC(=O)[C@H](CCSC)NC2=O [K9E] (H-GVIINVKCEISRQCLEPCKKAGMRFGKCMNGKCHCTPK-OH; disulfide 8-28, 14-33, 18-35) | 0.171 | 0.179
CC[C@H](C)[C@@H]1NC(=O)[C@H](Cc2cccc3ccccc23)NC(=O)[C@@H](NC(=O)[C@H](CCCCN)NC(=O)[C@@H](NC(=O)[C@H](CC(N)=O)NC(=O)[C@@H](NC(=O)[C@@H](NC(=O)[C@@H](NC(=O)CN)C(C)C)[C@@H](C)CC)[C@@H](C)CC)C(C)C)CSSC[C@@H]2NC(=O)[C@H](CCCCN)NC(=O)CNC(=O)[C@H](Cc3ccccc3)NC(=O)[C@H](CCCNC(=N)N)NC(=O)[C@H](CCSC)NC(=O)CNC(=O)[C@H](C)NC(=O)[C@H](CCCCN)NC(=O)[C@H](CCCCN)NC(=O)[C@@H]3CSSC[C@@H](C(=O)N[C@H](C(=O)N4CCC[C@H]4C(=O)N[C@@H](CCCCN)C(=O)O)[C@@H](C)O)NC(=O)[C@H](Cc4c[nH]cn4)NC(=O)[C@H](CSSC[C@H](NC(=O)[C@H](CCC(N)=O)NC(=O)[C@H](CCCNC(=N)N)NC(=O)[C@H](CO)NC1=O)C(=O)N[C@@H](CC(C)C)C(=O)N[C@@H](CCC(=O)O)C(=O)N1CCC[C@H]1C(=O)N3)NC(=O)[C@H](CCCCN)NC(=O)CNC(=O)[C@H](CC(N)=O)NC(=O)[C@H](CCSC)NC2=O [K9Nal] (H-GVIINVKC[1Nal]ISRQCLEPCKKAGMRFGKCMNGKCHCTPK-OH; disulfide 8-28, 14-33, 18-35) | 1.22 | 1.07
